Measurements published in publication PMC3701070 (PLoS ONE, 2013).

Tests used:
Assay in all cases: Cell growth assay
Format in all cases: cell-based
ZR-75-1 = details: Homo sapiens, 72 h; ZR-75-1, RAF WT, RAS WT, 3-day; read-out: gIC50
Summary of the method: (§1)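 First, a t = 0 CellTiter-Glo reading establishes starting cell content. Next, cells grow with compound for 72 h before a second reading. Finally, gIC50 is determined.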

MC-IXC = details: Homo sapiens, 72 h, RAF WT, RAS WT, 3-day, read-out: gIC50
Summary of the method: as §1

UMUC-3 = details: Homo sapiens, UMUC3, 72 h; UMUC-3, RAF WT, KRAS(G12C), 3-day; read-out: gIC50
Summary of the method: as §1

SKOV-3 = details: Homo sapiens, SK-OV-3, 72 h; SKOV-3, RAF WT, RAS WT, 3-day; read-out: gIC50
Summary of the method: as §1

HuNS-1 = details: Homo sapiens, HuNS1, 72 h; HuNS-1, RAF WT, RAS WT, 3-day; read-out: gIC50
Summary of the method: as §1

SJRH30 = details: Homo sapiens, 72 h; SJRH30, RAF WT, RAS WT, 3-day; read-out: gIC50
Summary of the method: as §1

SK-UT-1 = details: Homo sapiens, 72 h; SK-UT-1, RAF WT, RAS WT, 3-day; read-out: gIC50
Summary of the method: as §1

NCI-H716 = details: Homo sapiens, 72 h; NCI-H716, RAF WT, RAS WT, 3-day; read-out: gIC50
Summary of the method: as §1

SW1088 = details: Homo sapiens, 72 h; SW1088, RAF WT, RAS WT, 3-day; read-out: gIC50
Summary of the method: as §1

NCI-H187 = details: Homo sapiens, 72 h; NCI-H187, RAF WT, RAS WT, 3-day; read-out: gIC50
Summary of the method: as §1

SCC-25 = details: Homo sapiens, 72 h; SCC-25, RAF WT, RAS WT, 3-day; read-out: gIC50
Summary of the method: as §1

SW-837 = details: Homo sapiens, SW837, 72 h; SW-837, RAF WT, KRAS(G12C), 3-day; read-out: gIC50
Summary of the method: as §1

Raji = details: Homo sapiens, 72 h, RAF WT, RAS WT, 3-day, read-out: gIC50
Summary of the method: as §1

P3HR-1 = details: Homo sapiens, 72 h; P3HR-1, RAF WT, RAS WT, 3-day; read-out: gIC50
Summary of the method: as §1

SK-N-F1 = details: Homo sapiens, 72 h; SK-N-F1, RAF WT, RAS WT, 3-day; read-out: gIC50
Summary of the method: as §1

BxPc3 = details: Homo sapiens, BXPC-3, 72 h; BxPc3, RAF WT, RAS WT, 3-day; read-out: gIC50
Summary of the method: as §1

NCI-H1563 = details: Homo sapiens, 72 h; NCI-H1563, RAF WT, RAS WT, 3-day; read-out: gIC50
Summary of the method: as §1

CAL-27 = details: Homo sapiens, 72 h; CAL-27, RAF WT, RAS WT, 3-day; read-out: gIC50
Summary of the method: as §1

SW1463 = details: Homo sapiens, 72 h; SW1463, RAF WT, RAS WT, 3-day; read-out: gIC50
Summary of the method: as §1

RL = details: Homo sapiens, 72 h, RAF WT, RAS WT, 3-day, read-out: gIC50
Summary of the method: as §1

LS1034 = details: Homo sapiens, LS-1034, 72 h; LS1034, RAF WT, KRAS(A146T), 3-day; read-out: gIC50
Summary of the method: as §1

LNCaP = details: Homo sapiens, 72 h, RAF WT, RAS WT, 3-day, read-out: gIC50
Summary of the method: as §1

UACC-257 = details: Homo sapiens, 72 h; UACC-257, BRAF(V600E), RAS WT, 3-day; read-out: gIC50
Summary of the method: as §1

SN12C = details: Homo sapiens, 72 h, RAF WT, RAS WT, 3-day, read-out: gIC50
Summary of the method: as §1

RD = details: Homo sapiens, 72 h, RAF WT, RAS WT, 3-day, read-out: gIC50
Summary of the method: as §1

SK-LMS-1 = details: Homo sapiens, 72 h; SK-LMS-1, RAF WT, RAS WT, 3-day; read-out: gIC50
Summary of the method: as §1

BT-20 = details: Homo sapiens, 72 h; BT-20, RAF WT, RAS WT, 3-day; read-out: gIC50
Summary of the method: as §1

SNU-5 = details: Homo sapiens, 72 h; SNU-5, RAF WT, RAS WT, 3-day; read-out: gIC50
Summary of the method: as §1

PC-3 = details: Homo sapiens, 72 h; PC-3, RAF WT, RAS WT, 3-day; read-out: gIC50
Summary of the method: as §1

HT-29 = details: Homo sapiens, 72 h; HT-29, BRAF(V600E), RAS WT, 3-day; read-out: gIC50
Summary of the method: as §1

SW684 = details: Homo sapiens, 72 h; SW684, RAF WT, RAS WT, 3-day; read-out: gIC50
Summary of the method: as §1

NCI-ADR/RES = details: Homo sapiens, 72 h, RAF WT, RAS WT, 3-day, read-out: gIC50
Summary of the method: as §1

T47D = details: Homo sapiens, 72 h, RAF WT, RAS WT, 3-day, read-out: gIC50
Summary of the method: as §1

For `CC(C)(C)c1nc(-c2cccc(NS(=O)(=O)c3c(F)cccc3F)c2F)c(-c2ccnc(N)n2)s1` [dabrafenib], the IC50 (ZR-75-1) was greater than 10 µM, the IC50 (MC-IXC) was greater than 10 µM and the IC50 (UMUC-3) was greater than 10 µM. The IC50 (SKOV-3) was greater than 10 µM, the IC50 (HuNS-1) was greater than 10 µM and the IC50 (SJRH30) was greater than 10 µM. For the same compound, the IC50 (SK-UT-1) was greater than 10 µM, the IC50 (NCI-H716) was greater than 10 µM and the IC50 (SW1088) was greater than 10 µM. The IC50 (NCI-H187) was greater than 10 µM, the IC50 (SCC-25) was greater than 10 µM and the IC50 (SW-837) was greater than 10 µM. For the same compound, the IC50 (Raji) was greater than 10 µM, the IC50 (P3HR-1) was greater than 10 µM and the IC50 (SK-N-F1) was greater than 10 µM. The IC50 (BxPc3) was greater than 10 µM, the IC50 (NCI-H1563) was greater than 10 µM and the IC50 (CAL-27) was greater than 10 µM. The IC50 (SW1463) was greater than 10 µM, the IC50 (RL) was greater than 10 µM and the IC50 (LS1034) was greater than 10 µM. It also gave an IC50 (LNCaP) greater than 10 µM, an IC50 (UACC-257) of 0.006 µM and an IC50 (SN12C) greater than 10 µM. The IC50 (RD) was greater than 10 µM, the IC50 (SK-LMS-1) was greater than 10 µM and the IC50 (BT-20) was greater than 10 µM. For the same compound, the IC50 (SNU-5) was greater than 10 µM, the IC50 (PC-3) was greater than 10 µM and the IC50 (HT-29) was 0.066 µM. The IC50 (SW684) was greater than 10 µM, the IC50 (NCI-ADR/RES) was greater than 10 µM and the IC50 (T47D) was greater than 10 µM.
